The CheMixHub viscosity set

Assay: xn = mol fraction of the nth substance listed

CC(C)OCCO + CCCNCCC
viscosity [mPa·s], 101.33 kPa
Conditions | 298.15 K | 308.15 K | 318.15 K
x1 = 0.0484 | 0.544 | 0.476 | 0.41
x1 = 0.0855 | 0.581 | 0.505 | 0.435
x1 = 0.1225 | 0.625 | 0.534 | 0.458
x1 = 0.1899 | 0.704 | 0.599 | 0.502
x1 = 0.2514 | 0.798 | 0.671 | 0.555
x1 = 0.3234 | 0.918 | 0.76 | 0.617
x1 = 0.3933 | 1.046 | 0.855 | 0.685
x1 = 0.4465 | 1.154 | 0.941 | 0.747
x1 = 0.482 | 1.237 | 1.001 | 0.785
x1 = 0.5205 | 1.313 | 1.058 | 0.83
x1 = 0.6318 | 1.571 | 1.242 | 0.959
x1 = 0.73 | 1.776 | 1.381 | 1.076
x1 = 0.8358 | 1.959 | 1.516 | 1.187
x1 = 0.919 | 2.057 | 1.595 | 1.268
x1 = 0.9596 | 2.087 | 1.618 | 1.292

CC(C)OCCO + CCCO
298.15 K, 101.33 kPa
Conditions | viscosity [mPa·s]
x1 = 0.0192 | 1.947
x1 = 0.0257 | 1.944
x1 = 0.045 | 1.941
x1 = 0.0645 | 1.938
x1 = 0.081 | 1.933
x1 = 0.1072 | 1.93
x1 = 0.1486 | 1.927
x1 = 0.1863 | 1.923
x1 = 0.2438 | 1.919
x1 = 0.2942 | 1.914
x1 = 0.3545 | 1.916
x1 = 0.3782 | 1.921
x1 = 0.4251 | 1.929
x1 = 0.4749 | 1.938
x1 = 0.5261 | 1.949
x1 = 0.5659 | 1.958
x1 = 0.6184 | 1.971
x1 = 0.6608 | 1.983
x1 = 0.7 | 1.996
x1 = 0.7606 | 2.015
x1 = 0.8023 | 2.025
x1 = 0.8623 | 2.042
x1 = 0.8845 | 2.052
x1 = 0.9485 | 2.064

CCCCOCCO + CCCO
viscosity [mPa·s], 101 kPa
Conditions | x1 = 0.3032 | x1 = 0.8553 | x1 = 0.9516
298.15 K | – | 2.725 | –
303.15 K | 1.925 | – | 2.615

CCOCCOCCOCC + CCCO
298.15 K, 101.33 kPa
Conditions | viscosity [mPa·s]
x1 = 0.007 | 1.918
x1 = 0.0129 | 1.894
x1 = 0.0249 | 1.844
x1 = 0.0395 | 1.788
x1 = 0.0516 | 1.747
x1 = 0.0695 | 1.687
x1 = 0.097 | 1.611
x1 = 0.1283 | 1.541
x1 = 0.1736 | 1.458
x1 = 0.2229 | 1.396
x1 = 0.2672 | 1.354
x1 = 0.3115 | 1.32
x1 = 0.3638 | 1.291
x1 = 0.4026 | 1.28
x1 = 0.4592 | 1.259
x1 = 0.5239 | 1.243
x1 = 0.5856 | 1.231
x1 = 0.6363 | 1.227
x1 = 0.6742 | 1.225
x1 = 0.7119 | 1.224
x1 = 0.7662 | 1.222
x1 = 0.8311 | 1.226
x1 = 0.8815 | 1.231
x1 = 0.9142 | 1.235
x1 = 0.9468 | 1.239
x1 = 0.9756 | 1.24
